In assay [1] the target is T1, sigma receptors (Cavia porcellus, UniProt Q60492).
T1 construct: sigma receptors of the cerebral membranes of the guinea-pig used in this study; from tissue; host or cells: guinea-pig cerebral membranes
The assay can be described thus: in vitro affinity for sigma receptors, competition with (+)[3H]SKF10,047. In kind it is binding, guinea-pig (cerebral membranes). As to the method:
The test is carried out by incubating solutions of suitable concentrations of the products with standard samples of membranes and determining, after filtration, the residual radioactivity of the solution.

For assay [2], the target named is T2, delta receptors (Cavia porcellus, UniProt A0A286XTF2).
T2 construct: from tissue
The assay can be described thus: in vitro affinity for delta receptors. In kind it is binding. The conditions noted are these: Table 3; read-out: delta rec. IC50. As to the method: (§1) The "in vitro" study of the affinity of the compounds according to the invention for the three opium receptors is carried out in accordance with the technique described by F. Roman and coll. in J. Pharm. Pharmacol. 1987, 39, p. 404-407 and the study of the affinity for PCP receptors is carried out in accordance with the technique described by Vignon J. and coll. in "Brain Res." 1983; 280, p. 194-7 and 1986; 378, p. 133-41.
(§2) The results shown in table 3 are, for each receptor studied, expressed in IC50, which are the nanomolar concentrations of the dissolved products which are capable of inhibiting 50% of the bonds between the specific radioactive ligand to the receptor under consideration.

The target in assay [3] is T3, kappa receptors (Cavia porcellus, UniProt P41144).
T3 construct: from tissue
The experiment in a line: in vitro affinity for kappa receptors. In kind it is binding. The conditions noted are these: Table 3; read-out: kappa rec. IC50. The procedure:
as §1, §2

Assay [4] concerns the target mu receptors. The experiment in a line: in vitro affinity for mu receptors. In kind it is binding. The following applies: Table 3; read-out: mu rec. IC50. The procedure:
as §1, §2

In assay [5] the target is PCP receptors. The experiment in a line: in vitro affinity for phencyclidine (PCP) receptors. It counts as binding. The following applies: Table 3; read-out: PCP rec. IC50. As to the method: as §1, §2
Assay [6] is described as follows: protection from convulsions induced by picrotoxin in mice. The following applies: for ED50: Mus musculus; for p.o.: % prot. (inhibition of convulsions induced by picrotoxin): 100 mg/kg p.o., picrotoxin 24 mg/kg i.p. 60 minutes later; for p.o.: % prot. (inhibition of convulsions induced by picrotoxin) / i.p.: % prot. (inhibition of convulsions induced by picrotoxin): * p<0.05, ** p<0.01, *** p<0.001; for i.p.: % prot. (inhibition of convulsions induced by picrotoxin): 50 mg/kg i.p., picrotoxin 24 mg/kg i.p. 30 minutes later. It counts as in vivo, "Swiss" male mice. As to the method:
b) The psychotropic properties of the compounds were determined by the protection from convulsions induced by picrotoxin in mice, which was realized in accordance with a method derived from that of Krall and coll., "Epilepsia", 1978, 19, p. 409-428.
The administration of picrotoxin to animals causes a convulsive attack characterized by a myoclonic extension syndrome followed by extension of the limbs leading to death of the animals. Certain substances, in particular those which act on the GABA/benzodiazepine/Cl-ionophor complex, provide protection of the animals from these convulsive attacks.
In practice, the study is carried out on groups of 10 "Swiss" male mice weighing about 20 g, to which the product under investigation is administered in aqueous solution either intraperitoneally (i.p.) or orally (p.o.).
An intraperitoneal injection of a solution of picrotoxin in an amount of 24 mg/kg in a volume of 0.2 ml per animal is then performed, either 30 minutes after intraperitoneal administration of the product or 60 minutes after oral administration of the product, the dose of the product injected in this way causing a clonic attack which leads to death of the untreated animals. Under the conditions of the test, suppression of the tonic extension phase is found in the animals treated.
The results are expressed:
either as the percentage of animals protected from this phase under the action of 50 mg/kg compound under investigation administered i.p. or 100 mg/kg p.o.,
or in the ED50 for each of these groups, which is the effective dose of the compound under investigation expressed in mg/kg which protects 50% of animals from this extension phase, the significance value of the results generally being indicated in the following manner: […]

Assay [7] in a line: inhibition of gastro-duodenal ulcers caused by cysteamine. In kind it is in vivo, Wistar female rats. The conditions noted are these: Rattus norvegicus; cysteamine hydrochloride 400 mg/kg s.c.; products orally or subcutaneously; read-out: ED50 - ulceration scores. As to the method: This activity is set in relation to the capacity of the products to cause an increase in the alkaline secretion in the duodenum in anaesthetized animals.
In this test, groups of 6 Wistar female rats with an average weight of 200 g receive a subcutaneous injection of cysteamine hydrochloride in an amount of 400 mg/kg. The products under investigation are administered orally or subcutaneously 1 h or, respectively, 30 minutes before the ulcerogenic agent.
Ten hours thereafter, the rats are sacrificed by elongation and their stomach and duodenum are removed, rinsed with physiological solution and mounted on a card. The presence of ulcers in the antro-pyloric-duodenal zone is examined and their area, expressed in mm^2, is evaluated by multiplying the two main perpendicular axis of the lesion. Statistical analysis of the results is performed with the aid of the Student test for the ulcerated areas in comparison with a control group receiving only excipient.
The results presented in table 5 are expressed in ED50 of ulceration scores, which are the effective doses, expressed in mg/kg product, which cause inhibition of 50% of the ulcerations caused by cysteamine.

A short description of assay [8]: antagonism of amnesia caused by scopolamine, passive avoidance test. It counts as in vivo, mice. As to the method: The animal is introduced into the illuminated compartment, and when it moves to the dark compartment it receives an electric current (0.35 mA) through the base until it returns to the illuminated compartment, from where it is then removed.
After 24 hours, the operation is repeated. The mouse is replaced in the apparatus and it avoids entering into the dark compartment. The time which elapses before passage into this compartment is recorded; under the conditions of the experiment, the efficacy of the compounds under investigation in antagonizing the amnesic effect of scopolamine, which is administered intraperitoneally in an amount of 1 mg/kg 30 minutes before the animal is first introduced into the apparatus, can be evaluated.
In control mice which have received only scopolamine, the time elapsed before passage after 24 hours is remarkably lower than that observed in the untreated animals.
The study of the products according to the invention by this method is performed on groups of 18 mice and the products are administered orally on the first day in an amount of 0.25 mg/kg 30 minutes before administration of scopolamine i.p.

Setting [9] is: Table 3, read-out: sigma rec. IC50.
The mark [10] stands for this setting: po, 1 h, read-out: p.o.: ED50 (inhibition of convulsions induced by picrotoxin).
[11] abbreviates: Table 2, (+)[3H]SKF10,047, guinea-pig cerebral membranes, read-out: IC50 (bonding affinity to sigma receptors).

Each structure is given as a SMILES string. Structures can show the parent of a compound that is named as a salt. Where two headings read alike, the source gives them in different places.

T2 sequence (A0A286XTF2 1-366): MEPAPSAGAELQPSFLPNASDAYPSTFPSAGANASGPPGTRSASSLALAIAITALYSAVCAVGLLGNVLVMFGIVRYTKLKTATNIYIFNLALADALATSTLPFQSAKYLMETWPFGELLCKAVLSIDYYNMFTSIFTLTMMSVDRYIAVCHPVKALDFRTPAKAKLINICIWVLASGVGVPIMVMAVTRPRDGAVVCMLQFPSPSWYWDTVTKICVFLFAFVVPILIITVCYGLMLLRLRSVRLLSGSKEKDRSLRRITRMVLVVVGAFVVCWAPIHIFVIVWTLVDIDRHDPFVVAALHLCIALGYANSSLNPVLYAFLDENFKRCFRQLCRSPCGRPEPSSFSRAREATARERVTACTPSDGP
T3 sequence (P41144 whole entry): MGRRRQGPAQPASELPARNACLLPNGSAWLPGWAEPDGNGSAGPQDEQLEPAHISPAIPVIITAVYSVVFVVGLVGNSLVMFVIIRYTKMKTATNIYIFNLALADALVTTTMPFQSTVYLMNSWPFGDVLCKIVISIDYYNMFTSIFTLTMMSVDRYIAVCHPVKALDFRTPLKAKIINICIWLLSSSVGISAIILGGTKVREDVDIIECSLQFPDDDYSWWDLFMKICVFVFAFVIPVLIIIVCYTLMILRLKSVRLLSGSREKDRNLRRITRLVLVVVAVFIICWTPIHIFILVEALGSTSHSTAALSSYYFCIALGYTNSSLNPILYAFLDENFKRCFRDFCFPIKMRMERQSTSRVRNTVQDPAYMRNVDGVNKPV
T1 sequence (Q60492 whole entry): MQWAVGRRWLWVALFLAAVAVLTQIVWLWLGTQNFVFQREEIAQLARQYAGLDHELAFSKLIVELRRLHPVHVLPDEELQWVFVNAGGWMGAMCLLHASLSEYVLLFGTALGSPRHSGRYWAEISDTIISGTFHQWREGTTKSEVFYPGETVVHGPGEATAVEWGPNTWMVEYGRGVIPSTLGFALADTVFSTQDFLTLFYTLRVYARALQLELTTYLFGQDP

Regarding `CC(C)C(CC=Cc1ccccc1)(c1ccccc1)N(C)CC1CC1` (stereo not drawn) [Example 14, α-Cinnamyl-N-cyclopropylmethyl-α-isopropyl-N-methyl-benzylamine], the IC50 in assay [1] (setting [9]) is 0.669 µM; in assay [2] it was over 100 µM; in assay [3] it was 76 µM; in assay [4], 34.2 µM; in assay [5], 14.2 µM.

Turning to `CN(CC1CC1)C(C)(CC=Cc1ccccc1)c1ccccc1` (stereo not drawn) [Example 13, α-Cinnamyl-N-cyclopropylmethyl-N-α-dimethyl-benzylamine], the IC50 in assay [1] (setting [9]) came out at 0.337 µM; in assay [2] it was 9.37 µM; in assay [3], 8.68 µM; in assay [4], 10.2 µM; in assay [5] it was 10.5 µM. Moreover, the ED50 was 32.5 mg/kg in assay [6] (ip, 0.5 h, read-out: i.p.: ED50 (inhibition of convulsions induced by picrotoxin)) and 64.4 mg/kg in assay [6] (setting [10]).

Take `CCC(CC=Cc1ccccc1)(NCC1(C)CC1)c1ccccc1` (stereo not drawn) [Example 2, α-Cinnamyl-α-ethyl-N-(1-methylcyclopropyl)-methyl-benzylamine]: in assay [6], the “p.o.: % prot. (inhibition of convulsions induced by picrotoxin)” value is 90%.

Turning to `CCC(CC=Cc1ccccc1)(NC[C@@H]1C[C@H]1c1ccccc1)c1ccccc1` (relative stereo) [Example 3, α-Cinnamyl-α-ethyl-N-(trans-2-phenyl-cyclopropyl)methyl-benzylamine], in assay [1] (setting [11]), the IC50 stood at 0.368 µM.

For `CCC(CC=Cc1ccc(Cl)c(Cl)c1)(c1ccc(Cl)cc1)N(C)CC1CC1` (stereo not drawn) [Example 16, α-(3',4'-Dichloro)cinnamyl-N-cyclopropyl-methyl-α-ethyl-N-methyl-p-chlorobenzylamine], the “p.o.: % prot. (inhibition of convulsions induced by picrotoxin)” value in assay [6] worked out at 60%.

Take `CCC(CC=Cc1ccccc1)(c1ccccc1)N(C)CCC1CC1` (stereo not drawn) [Example 8, α-Cinnamyl-N-cyclopropylethyl-α-ethyl-N-methyl-benzylamine]: the IC50 in assay [1] (setting [11]) amounted to 0.021 µM; in assay [2] it was 7.55 µM; in assay [3], 1.52 µM; in assay [4], 2.04 µM; in assay [5] it was 25.9 µM. For the same compound, in assay [6] (setting [10]), the ED50 is 53.6 mg/kg.

As for `CCC(CC=Cc1ccccc1)(c1ccccc1)N(C)C[C@@H]1C[C@H]1c1ccccc1` (relative stereo) [Example 6, α-Cinnamyl-α-ethyl-N-methyl-N-(trans-2-phenyl-cyclopropyl)-methyl-benzylamine], the IC50 in assay [1] (setting [11]) was found to be 0.246 µM.

On to `CCC(CC=Cc1ccccc1)(c1ccco1)N(C)CC1CC1` (stereo not drawn) [Example 20, α-Cinnamyl-N-cyclopropylmethyl-α-ethyl-N-methyl-2-furfurylamine], for which, in assay [6], the “p.o.: % prot. (inhibition of convulsions induced by picrotoxin)” value was found to be 60%.

As to `CCC(C[C@@H]1C[C@H]1c1ccccc1)(c1cccs1)N(C)CC1CC1` (relative stereo) [Example 24, trans-N-Cyclopropylmethyl-α-ethyl-N-methyl-α-(2-phenyl-1-cyclopropylmethyl)-2-thiophenemethylamine], the IC50 in assay [1] (setting [11]) was 0.029 µM; in assay [2] it was 57 µM; in assay [3], 9.1 µM; in assay [4], 3.02 µM. Moreover, the “i.p.: % prot. (inhibition of convulsions induced by picrotoxin)” value in assay [6] was found to be 50%. The “p.o.: % prot. (inhibition of convulsions induced by picrotoxin)” value in assay [6] was found to be 50%. The ED50 in assay [7] amounted to 45.7 mg/kg.

As to `CCC(CC=Cc1ccccc1)(c1ccccc1)N(C)CC1CC1` (single isomer, unassigned) [Example 11, (-)-α-Cinnamyl-N-cyclopropyl-methyl-α-ethyl-N-methyl-benzylamine hydrochloride], the IC50 worked out at 0.102 µM in assay [1] (IC50 (bonding affinity to sigma receptors), Table 2, (+)[3H]SKF10,047, guinea-pig cerebral membranes); 0.21 µM in assay [1] (sigma rec. IC50, Table 3); 41.6 µM in assay [2]; 5.14 µM in assay [3]. In assay [6] (hydrochloride), the “i.p.: % prot. (inhibition of convulsions induced by picrotoxin)” value is recorded as 70%. For the same compound, in assay [8] (0.25 mg/kg orally, scopolamine 1 mg/kg i.p. 30 minutes later, latency after 24 hours, hydrochloride), the “% antagonism of the amnesia” value was determined as 38%.

With `CCC(C[C@@H]1C[C@H]1c1ccccc1)(c1ccsc1)N(C)CC1CC1` (relative stereo) [Example 25, trans-N-Cyclopropylmethyl-α-ethyl-N-methyl-α-(2-phenyl-1-cyclopropylmethyl)-3-thiophenemethylamine], in assay [6], the “i.p.: % prot. (inhibition of convulsions induced by picrotoxin)” value is on record as 50% and the “p.o.: % prot. (inhibition of convulsions induced by picrotoxin)” value was found to be 50%.

In the case of `NC(=O)CN1CCCC1=O` [piracetam, reference compound], the “% antagonism of the amnesia” value was 109% in assay [8] (2048 mg/kg p.o.) and “about 100%” in assay [8] (2048 mg/kg p.o., listed as piracetam).

Take `CCC(C[C@@H]1C[C@H]1c1ccccc1)(c1ccco1)N(C)CC1CC1` (relative stereo) [Example 23, trans-N-Cyclopropylmethyl-α-ethyl-N-methyl-α-(2-phenyl-1-cyclopropylmethyl)-2-furfurylamine]: in assay [6], the “i.p.: % prot. (inhibition of convulsions induced by picrotoxin)” value was 50%.

These data come from patent US5034419A, “N-cycloalkylalkylamines, process for their preparation, their use as medicament and their synthesis intermediates” (L'Oreal, priority 1988, dated 1991).
